Laboratory results from article PMC6487966, “Streptococcal dTDP‐L‐rhamnose biosynthesis enzymes: functional characterization and lead compound identification” (Molecular Microbiology, 2019).

Assays:
Test in all cases: bio-layer interferometry, dilution series on biotinylated recombinant enzyme
Assay type in all cases: binding
[1] = molecular target: T1, RmlB (dTDP‐glucose‐4,6‐dehydratase) (Streptococcus pyogenes, UniProt Q9A045)
T1 construct: gene cpsFQ

[2] = molecular target: T2, RmlC (dTDP‐4‐keto‐6‐deoxyglucose‐3,5‐epimerase) (Streptococcus pyogenes, UniProt Q5XCG7)
T2 construct: gene rfbC

[3] = molecular target: GacA (RmlD, dTDP‐4‐dehydrorhamnose reductase) (Streptococcus pyogenes, UniProt Q9A0G6)
Chain of GacA (RmlD, dTDP‐4‐dehydrorhamnose reductase) (Q9A0G6 entry or part of it): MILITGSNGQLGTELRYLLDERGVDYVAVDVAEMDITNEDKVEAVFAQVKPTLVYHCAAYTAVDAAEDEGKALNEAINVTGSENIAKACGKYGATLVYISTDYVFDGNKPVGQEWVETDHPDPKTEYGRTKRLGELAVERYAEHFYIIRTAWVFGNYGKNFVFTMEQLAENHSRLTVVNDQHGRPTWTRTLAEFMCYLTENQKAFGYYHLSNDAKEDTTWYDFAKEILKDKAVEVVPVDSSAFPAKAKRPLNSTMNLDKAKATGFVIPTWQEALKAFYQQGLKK

T2 sequence (Q5XCG7 whole entry): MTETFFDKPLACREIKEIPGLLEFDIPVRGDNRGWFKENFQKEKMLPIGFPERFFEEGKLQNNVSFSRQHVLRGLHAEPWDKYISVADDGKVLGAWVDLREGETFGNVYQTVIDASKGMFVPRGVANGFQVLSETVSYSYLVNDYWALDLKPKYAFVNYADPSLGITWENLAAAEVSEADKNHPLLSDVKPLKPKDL
T1 sequence (Q9A045 entry or part of it): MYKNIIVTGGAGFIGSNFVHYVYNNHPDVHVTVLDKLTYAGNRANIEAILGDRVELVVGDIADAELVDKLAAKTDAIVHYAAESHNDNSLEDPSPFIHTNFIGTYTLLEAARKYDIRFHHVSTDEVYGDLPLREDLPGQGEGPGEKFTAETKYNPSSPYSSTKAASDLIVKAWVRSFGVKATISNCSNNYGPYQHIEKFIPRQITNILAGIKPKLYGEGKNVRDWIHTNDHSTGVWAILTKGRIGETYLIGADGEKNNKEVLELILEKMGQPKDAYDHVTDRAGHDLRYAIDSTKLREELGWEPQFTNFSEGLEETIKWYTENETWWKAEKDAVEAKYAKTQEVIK

O=C(O)c1ccc(-c2ccc(Cl)cc2)o1 [Ri03, 5‐(4‐chlorophenyl)‐2‐furoic acid] gave a Kd [1] of 200 µM, a Kd [2] of ~3000 µM and a Kd [3] of 300 µM.
